Where two headings read alike, the source gives them in different places.
What was measured:
CBL-B = molecular target: T1, CBL-B (Homo sapiens, UniProt Q13191); experiment: Jurkat HiBit-IL2 assay (c-CBL KO), reporter cell line expressing CBL-B only; type: cell-based; details: geometric mean, read-out: C-CBL KO EC50 (nM) GMean
T1 construct: endogenous in cells; host or cells: Jurkat HiBit-IL2 reporter cells, C-CBL knocked out by CRISPR
Excerpt: (§1) Jurkat HiBit-IL2 Assay (WT, c-CBL KO, CBL-B KO)
(§2) The purpose of the Jurkat HiBit-IL2 assay is to evaluate the effect of the inhibition of CBL-B and/or C-CBL on TCR/CD28 stimulated interleukin-2 (IL-2) secretion.
(§3) The expression of IL-2 can then be accurately measured by HiBit luciferase assay. Further, C-CBL or CBL-B was knocked out by CRISPR respectively in this Jurkat HiBit-IL2 reporter cell line to create reporter cell line expressing CBL-B only (c-CBL knockout (KO)) or C-CBL only (CBL-B KO).
(§4) All three reporter cell lines were maintained in RPMI-1640 media with GlutaMax, 10% fetal bovine serum, 100 units/ml of penicillin, and 100 μg/ml of streptomycin at 37° C., 5% CO2, at a cell density 1×10e5-2×10e6 viable cells/ml. Serial diluted compounds in DMSO (40 nl/well, final 0.1% DMSO in assay cell culture) were plated into 384-well white-wall clear-bottom cell culture plates. Reporter cells were pelleted and resuspended in fresh cell culture medium to 0.66×10e6 cells/ml and added to the assay plate at 30 μl/well (20,000 cells/well). The cells were incubated with compounds for 1 hour at 37° C., 5% CO2. 10 μl/well of anti-CD3 antibody (OKT3) and anti-CD28 antibody (CD28.2) prediluted in fresh cell culture medium at 4× final concentration (anti-CD3 mAb: 4 μg/ml; anti-CD28 mAb: 8 μg/ml) was added into the cells (final concentration of anti-CD3 mAb: 1 μg/ml; anti-CD28 mAb: 2 μg/ml). The cells were cultured for another 4 hours at 37° C., 5% CO2. The Nano-Glo HiBiT Lytic Reagent was prepared following the manufacturer's protocol. 20 ul/well of the Nano-Glo HiBiT Lytic Reagent was added into the reporter cell culture assay plate and incubated at room temperature (20-25° C.) for 15 minutes. The plates were read on a Perkin-Elmer EnVision plate reader with 0.1 second integration time. Data were normalized to “Fold of Effect” with the anti-CD3 and anti-CD28 antibodies only samples as the baseline activation level and EC50 was calculated. The EC50 (nM) values reported are the geometric means (GMean) of the number of tests conducted.

C-CBL = molecular target: T2, C-CBL (Homo sapiens, UniProt P22681); experiment: Jurkat HiBit-IL2 assay (CBL-B KO), reporter cell line expressing C-CBL only; type: cell-based; details: geometric mean, read-out: CBL-B KO EC50 (nM) GMean
T2 construct: endogenous in cells; host or cells: Jurkat HiBit-IL2 reporter cells, CBL-B knocked out by CRISPR
Excerpt: as §1, §2, §3, §4

C-CBL (residues 46-435) = molecular target: T3, C-CBL (residues 46-435) (Homo sapiens, UniProt P22681); experiment: Ligand Displacement Assay (LDA), HTRF competitive binding against BODIPY-labeled fluorescent tracer, C-CBL; details: geometric mean of the number of tests, read-out: C-CBL Ki (nM) GMean
T3 construct: Purified CBL-B (residues 36-427) and C-CBL (residues 46-435) proteins from baculovirus-infected insect cells; made in house; host or cells: baculovirus-infected insect cells
T3 sequence (P22681 46-435): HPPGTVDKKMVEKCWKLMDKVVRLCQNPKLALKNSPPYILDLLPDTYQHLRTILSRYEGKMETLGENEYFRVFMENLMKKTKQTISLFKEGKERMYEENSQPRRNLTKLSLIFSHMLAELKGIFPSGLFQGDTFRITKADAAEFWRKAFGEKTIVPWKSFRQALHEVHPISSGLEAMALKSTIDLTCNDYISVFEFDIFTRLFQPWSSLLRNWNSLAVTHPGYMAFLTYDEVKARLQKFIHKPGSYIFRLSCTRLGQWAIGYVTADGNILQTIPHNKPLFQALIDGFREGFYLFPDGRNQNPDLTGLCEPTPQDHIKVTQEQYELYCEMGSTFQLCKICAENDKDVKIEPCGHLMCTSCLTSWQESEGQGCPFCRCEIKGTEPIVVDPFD
Procedure, shortened: (§5)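 Terbium-streptavidin donor on BirA-biotinylated, AviTagged protein from baculovirus-infected insect cells; BODIPY tracer as acceptor. Compound titrations were three-fold and duplicated, […] with 2% DMSO final.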

CBL-B (residues 36-427) = molecular target: T4, CBL-B (residues 36-427) (Homo sapiens, UniProt Q13191); experiment: Ligand Displacement Assay (LDA), HTRF competitive binding against BODIPY-labeled fluorescent tracer, CBL-B; details: geometric mean of the number of tests, read-out: CBL-B Ki (nM) GMean
T4 construct: Purified CBL-B (residues 36-427) and C-CBL (residues 46-435) proteins from baculovirus-infected insect cells; made in house; host or cells: baculovirus-infected insect cells
Procedure, shortened: as §5

[1] = C-CBL KO (expressing CBL-B only), Table 16b (further repetition)
[2] = c-CBL KO (CBL-B only), anti-CD3/anti-CD28 stimulation 4 hours, Table 16a
[3] = CBL-B KO (C-CBL only), anti-CD3/anti-CD28 stimulation 4 hours, Table 16a
[4] = CBL-B KO (expressing C-CBL only), Table 16b (further repetition)

SMILES | EC50 (CBL-B; [1]) | EC50 (CBL-B; [2]) | EC50 (C-CBL; [3]) | EC50 (C-CBL; [4]) | Ki (C-CBL (residues 46-435)) | Ki (CBL-B (residues 36-427))
C[C@@H](N[C@H]1CCC[C@@H]1O)c1nc(C(F)(F)F)cc2c(-c3cccc([C@H](c4nncn4C)C4CCC4)c3)n[nH]c12 (single isomer, unassigned) [Example C46] | 61 nM | 36 nM | 392 nM | 330 nM | 67.8 nM | 9.4 nM
CC(NC(=O)[C@@H](C)O)c1nc(C(F)(F)F)cc2c(-c3cccc([C@H](c4nncn4C)C4CCC4)c3)n[nH]c12 (single isomer, unassigned) [Example I5] | 62 nM |  |  | 299 nM | 22.9 nM | 2.7 nM
C[C@@H](c1nc(C(F)(F)F)cc2c(-c3cccc([C@H](c4nncn4C)C4CCC4)c3)n[nH]c12)N1CC[C@H]1CO (single isomer, unassigned) [Example D64] | 134 nM |  |  | 483 nM | 58 nM | 8.7 nM
CC(NCC(C)(C)O)c1nc(C(F)(F)F)cc2c(-c3cccc([C@H](c4nncn4C)C4CCC4)c3)n[nH]c12 (single isomer, unassigned) [Example C45] | 30 nM | 14 nM | 102 nM | 115 nM | 22.1 nM | 2.5 nM
C[C@@H](N[C@@H]1CC[C@@H]1O)c1nc(C(F)(F)F)cc2c(-c3cccc([C@H](c4nncn4C)C4CCC4)c3)n[nH]c12 (single isomer, unassigned) [Example D29] | 36 nM | 11 nM | 139 nM | 224 nM | 23.7 nM | 1.9 nM
C[C@H](N[C@@H]1COC[C@@H]1O)c1nc(C(F)(F)F)cc2c(-c3cccc([C@H](c4nncn4C)C4CCC4)c3)n[nH]c12 (single isomer, unassigned) [Example D20] | 11 nM | 4 nM | 30 nM | 31 nM | 2.3 nM | 1.7 nM
C[C@@H](c1nc(C(F)(F)F)cc2c(-c3cccc([C@H](c4nncn4C)C4CCC4)c3)n[nH]c12)N1CC[C@H](O)C1 (single isomer, unassigned) [Example D70] | 163 nM |  |  | 618 nM | 48.4 nM | 7.1 nM
C[C@@H](CO)N[C@H](C)c1nc(C(F)(F)F)cc2c(-c3cccc([C@H](c4nncn4C)C4CCC4)c3)n[nH]c12 (single isomer, unassigned) [Example D63] | 121 nM |  |  | 577 nM | 67 nM | 8.4 nM
C[C@H](NC[C@@H](C)O)c1nc(C(F)(F)F)cc2c(-c3cccc([C@H](c4nncn4C)C4CCC4)c3)n[nH]c12 (single isomer, unassigned) [Example D25] | 101 nM | 20 nM | 174 nM | 359 nM | 51.1 nM | 6.4 nM
C[C@H](N[C@@H]1COC[C@H]1O)c1nc(C(F)(F)F)cc2c(-c3cccc([C@H](c4nncn4C)C4CCC4)c3)n[nH]c12 (single isomer, unassigned) [Example D59] | 267 nM |  |  | 1260 nM | 26.6 nM | 2.6 nM
CC(NCC(C)(C)O)c1nc(C(F)(F)F)cc2c(-c3cccc([C@H](c4nncn4C)C4CCC4)c3)n[nH]c12 (single isomer, unassigned) [Example C117] | 170 nM |  |  | 794 nM | 83.6 nM | 7.9 nM
C[C@@H](c1nc(C(F)(F)F)cc2c(-c3cccc([C@H](c4nncn4C)C4CCC4)c3)n[nH]c12)N1CC(C)(O)C1 (single isomer, unassigned) [Example D66] | 72 nM |  |  | 409 nM | 22.1 nM | 2.6 nM
CC(NC[C@H](C)O)c1nc(C(F)(F)F)cc2c(-c3cccc([C@H](c4nncn4C)C4CCCCC4)c3)n[nH]c12 (single isomer, unassigned) [Example C100] | 110 nM |  |  | 1410 nM | 40.4 nM | 2.8 nM

— patent US20260125375A1 (Pfizer Inc., priority 2022, published 2026)
